Source: US6413951B2, “20-fluoro-17(20)-vinyl steroids” (Aventis Pharmaceuticals, Inc., priority 2000, dated 2002)

How the values were obtained:
[1] = system: cynomologous monkey C17,20 lyase; assay: In vitro C17,20 lyase assay (testicular microsomes); format: biochemical, cynomolgus monkey; parameters: unit of the concentration uncertain
Protocol: In vitro C17,20 lyase assay: Compounds were tested for inhibition of cynomologous monkey C17,20 lyase in vitro using microsomal preparations of the enzyme from testicular tissue. Testes were removed from anesthetized animals and flash frozen in liquid nitrogen. Microsomes were isolated as described in Schatzman et al., Anal. Biochem., 175, 219-226 (1988). The compound to be tested was dissolved in DMSO and diluted in 0.05M potassium phosphate buffer, pH 7.4, to give the desired concentrations of test compound, in an amount which contributes 0.1% v/v DMSO to the total assay volume. […] Control assays contained all components, including DMSO, but no test compound. All assays were performed in duplicate. […] The complete assay was incubated at 34° C. for 6 minutes. […] Radioactivity in the steriod peaks was measured using a Radiometric Model HS or Model A515 Flo-One detector. The enzyme activity for each assay was calculated from the conversion of substrate to products, and. the results expressed as percent inhibition of control.

[2] = system: cynomolgus monkey 5α-reductase; conditions: read-out: Km values of testosterone, multiple experiments
Protocol: (§1) In vitro 5α-reductase assay: The activity of the present compounds as inhibitors of steroid 5α-reductase was determined using microsomal preparations of the 5α-reductase enzyme from human or laboratory animal prostate tissue. Specifically, prostate tissue was rapidly frozen in liquid nitrogen following removal from the human patient or from a cynomologus monkey (Macaca fascicularis) and subsequently stored at −80° C. The tissue was thawed, minced, and then homogenized in 5 volumes of 0.05M potassium phosphate buffer, pH 7.0, using a Tekmar homogenizer with 3×5 second bursts, followed by 10 strokes in a Dounce homogenizer. The homogenate was sonified in three pulses of 5 seconds each at 50% of maximum power. The homogenate was subjected to differential centrifugation with each supernatant successively centrifuged at 600×G and […] in a Beckman J21 centrifuge followed by 120,000×G in a Beckman Model L5-75 ultracentrifuge. The final pellet, containing the microsomal fraction, was reserved and resuspended in 0.05M potassium phosphate buffer, pH 7.0, containing 25% (w/v) glycerol equal to 1 mL per 3 g wet tissue. The suspension was divided into aliquots, flash frozen using dry ice in methanol, and stored at −80° C. […] Protein concentration was determined by the BioRad dye binding method (BioRad, Richmond, Calif., USA). […]

[3] = target: T1, human 5α-reductase (Homo sapiens, UniProt P31213); assay: In vitro 5α-reductase assay (prostate microsomes), human; format: biochemical; conditions: read-out: Km values of testosterone, multiple experiments
T1 construct: microsomal preparations of the 5α-reductase enzyme from human or laboratory animal prostate tissue; from tissue; host or cells: human prostate, microsomes
T1 sequence (P31213 1-254): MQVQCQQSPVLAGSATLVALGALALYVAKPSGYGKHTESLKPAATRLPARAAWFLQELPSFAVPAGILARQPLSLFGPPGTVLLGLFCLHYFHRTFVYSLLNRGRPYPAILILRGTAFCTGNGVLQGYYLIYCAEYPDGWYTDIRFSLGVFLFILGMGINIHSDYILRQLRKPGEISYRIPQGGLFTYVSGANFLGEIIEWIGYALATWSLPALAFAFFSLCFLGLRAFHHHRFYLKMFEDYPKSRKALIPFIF
Protocol: as §1

[4] = system: rat 5α-reductase; conditions: read-out: Km values of testosterone, multiple experiments
[5] = Conc. 1 (unit uncertain), Preinc. 0 min
[6] = Conc. 1 (unit uncertain), Preinc. 40 min
[7] = Conc. 10 (unit uncertain), Preinc. 0 min
[8] = Conc. 10 (unit uncertain), Preinc. 40 min

Compound | melting point | % Inhibition [1, 5] | % Inhibition [1, 6] | % Inhibition [1, 7] | % Inhibition [1, 8] | Km [2] | Km [3] | Km [4]
C[C@]12CC[C@H](O)CC1=CC[C@@H]1[C@@H]2CC[C@]2(C)/C(=C(/F)CO)CC[C@@H]12 [E CH2OH, (17E)-20-Fluoropregna-5,17(20)-diene-3β,21-diol] | 214 to 216 °C | 63% | 61% | 85% | 87% | – | – | –
C/C(F)=C1/CC[C@H]2[C@@H]3CC=C4C[C@@H](O)CC[C@]4(C)[C@H]3CC[C@]12C [E CH3, (17E)-20-fluoropregna-5,17(20)-dien-3β-ol] | 129 to 133 °C | 54% | 60% | 88% | 94% | – | – | –
C[C@]12CC[C@H](O)CC1=CC[C@@H]1[C@@H]2CC[C@]2(C)/C(=C(\F)CO)CC[C@@H]12 [Z CH2OH, (17Z)-20-Fluoropregna-5,17(20)-diene-3β,21-diol] | 198 to 203 °C | 96% | 94% | 100% | 100% | – | – | –
C/C(F)=C1\CC[C@H]2[C@@H]3CC=C4C[C@@H](O)CC[C@]4(C)[C@H]3CC[C@]12C [Z CH3, (17Z)-20-Fluoropregna-5,17(20)-dien-3β-ol] | 153 to 155 °C | 49% | 72% | 78% | 94% | – | – | –
C[C@]12CC[C@H]3[C@@H](CCC4=CC(=O)CC[C@@]43C)[C@@H]1CC[C@@H]2O [testosterone, 17β-hydroxyandrost-4-en-3-one] | – | – | – | – | – | 0.025 to 0.091 µM | 0.125 to 0.273 µM | 0.74 to 0.9 µM
